Test [1] concerns the target Sodium channel alpha subunits; brain (Types I, II, III) (Homo sapiens, UniProt P35498+Q99250+Q9NY46). Description: Antagonism of batrachotoxin-mediated sodium ion uptake into cultured neuroblastoma cells. Format: functional.
Test [2] deals with Sodium channel alpha subunits; brain (Types I, II, III) (Rattus norvegicus, UniProt P04775+P04774+P08104). Put plainly: Inhibition of [3H]batrachotoxin binding to rat brain neuronal membranes. Format: cell membranes, Membrane.

The structures appear in SMILES notation.

Usually IC50 stands for the point on the concentration scale where inhibition reaches its midpoint. Low values mean higher potency, high ones lower potency.

`COC[C@H](CCOC(=O)c1ccccc1)C[C@@H](O)[C@@]12CCCC3C[C@@](OC)(CCC31C)O2`: the IC50 in test [1] was determined as 5 µM; in test [2], 10 µM.

Take `CC12CC[C@]3(OCc4cccc(Br)c4)CC1CCC[C@@]2(CO)O3`: the IC50 in test [1] was 80 µM; in test [2], 10 µM.

With `CO[C@]12CCC3(C)C(CCC[C@@]3([C@H](O)CCCN(C)C)O1)C2`, the IC50 in test [1] amounted to 200 µM; in test [2], 130 µM.

`CO[C@]12CCC3(C)C(CCC[C@@]3([C@H](O)C[C@@H](CCOC(=O)c3ccccc3)CN(C)C)O1)C2`: the figures for the IC50 in test [1] and in test [2] were 0.5 µM and 3.6 µM, respectively.

Regarding `CN(C)CCC[C@@H](O)[C@@]12CCCC3C[C@@](OCc4ccccc4)(CCC31C)O2`, the IC50 in test [1] is 4 µM; in test [2], 4.5 µM.

In the case of `CO[C@]12CCC3(C)C(CCC[C@@]3(CO)O1)C2`, the values for the IC50 in test [1] and in test [2] were 1000 µM and 2000 µM, respectively.

`CCCCNc1ccc(C(=O)OCCN(C)C)cc1` [TETRACAINE] yielded an IC50 in test [2] of 6 µM.

The compound `COc1ccc(C(=O)O[C@H]2CC[C@@]3(C)[C@@H]4CC[C@H]5[C@]6(O)C[C@H](O)[C@@]7(O)[C@@H](CN8C[C@@H](C)CC[C@H]8[C@@]7(C)O)[C@]6(O)C[C@@]53O[C@]24O)cc1OC` [VERATRIDINE] registered an IC50 in test [2] of 22 µM.

For the origin of these results see ChEMBL document CHEMBL1130561, “Batrachotoxin binding site antagonists” (Bioorg Med Chem Lett, 1997).
